According to patent US8535897B2, “Assays for non-apoptotic cell death and uses thereof” (The Trustees of Columbia University in the City of New York, priority 2006, dated 2013):

Experiments:
[1] = tested on: BJ-TERT/LT/ST/RASV12; test: Alamar blue viability assay, engineered tumor cells; assay type: cell-based, human
Procedure: Erastin was tested in a dilution series in five engineered cell lines derived from primary BJ fibroblasts. Cells were incubated with erastin for two days at 37° C. with 5% CO2, Alamar blue was added (10% final volume) and fluorescence measured (530 nm ex, 590 nm em). Cell lines harboring oncogenic RAS (triangles, circles and x's) were sensitive to erastin, but isogenic lines lacking oncogenic RAS (squares and diamonds) were resistant. Two different clones of engineered tumor cells (circles and triangles) responded similarly.
(a) BJ-TERT/LT/ST/RAS^V12 cells were treated with 9 μM erastin A1 for the indicated length of time, and the number of viable cells determined. (b) 1,000 BJ-TERT/LT/ST/RAS^V12 cells/well in 384-well plates were treated with erastin for 2 d, then alamar blue was added to a final concentration of 10% and the plates were incubated for 16 h. Red fluorescence resulting from reduction of alamar blue was detected on a Victor3 platereader. The percent growth inhibition is shown; error bars represent one SD. […] (c) TEM images (20,000× magnification) of BJ-TERT/LT/ST/RAS^V12 mitochondria after cells were treated with nothing, erastin (37 μM for 10 h) or staurosporine (STS, 1 μM for 5 h), and phase-contrast photograph of BJ-TERT/LT/ST/RAS^V12 cells 24 h after 9 μM erastin A1 treatment is also shown to indicate that even after cell death, nuclei are intact. (d) Anti-oxidants suppress erastin-induced death. BJ-TERT/LT/ST/RAS^V12 cells were treated as indicated and photographed. (e) The number of viable cells was quantified under each condition using a hemacytometer. (f) Iron chelators suppress erastin-induced cell death. Cells were seeded in 384-well plates (6,000 cells/well) and treated with 2-fold dilution series of erastin in the presence of 100 μM desferrioxamine mesylate (DFOM), 100 μM of iron chelator 1a, 100 μM of iron chelator 2, 10 μM or 1 μM of iron chelator 311. After 24 h, alamar blue was added and cell viability assayed. (g, h) Erastin-induced formation of oxidative species. BJ-TERT/LT/ST/RAS^V12 (shown in histogram plots, and in line graph as dark diamonds) or BJ-TERT cells (shown in line graph only, light circles) were treated with 4.6-μM erastin A1 and the level of intracellular oxidative species determined. (i, j) STS, but not erastin, induces PARP1 cleavage (red bands at top) in BJ-TERT/LT/ST/RAS^V12 cells and in A673, HT1080 and HeLa cells. NS: non-specific band. […] Cells were treated with STS or erastin, separated into mitochondrial and cytosolic fractions, and probed for cytochrome c (lower red band) and total VDAC (middle green band, pan-VDAC antibody). (1) Caspase-3 is not cleaved in response to erastin. Cells were treated as indicated and probed with an anti-caspase-3 antibody that recognizes both the full length and the cleaved, active form (lower band). […] ATP levels were measured, viable cells determined by Trypan Blue exclusion and ATP per viable cell determined. Abbreviations: DMSO, dimethylsulfoxide; BHT, butylated hydroxytoluene; TOC, alpha-tocopherol; ERA, erastin A1; CAR, beta-carotene; STS, staurosprine.
(a) Calu-1 lung carcinoma cells harboring oncogenic KRAS were infected with lentivirus containing shRNAs targeting KRAS or GFP. Sequences of shRNAs are indicated by starting nucleotide (nt) in the KRAS mRNA coding sequence. Cells were treated with erastin and viability measured by Trypan Blue exclusion. (b) Knockdown of KRAS was confirmed by western blot. (c,d) A673 cells harboring oncogenic BRAF were infected with lentiviral shRNAs targeting BRAF exon 5 (c) or the 5′ UTR (d), luciferase (LUC)(c) or GFP (d). Cells were treated with erastin and viability measured using Alamar Blue (c) and Trypan Blue (d). (e) Knockdown of BRAF was confirmed by western blot. […] BJ-TERT/LT/ST/RAS^V12 cells were treated with erastin alone or in with a MEK inhibitor U0126 (20 μM), MEK inhibitor I (10 μM) or MEK 1/2 inhibitor (50 μM). After 48 h, viability was determined using Trypan Blue. […]

[2] = tested on: HL-60; test: Response of tumor cell lines to erastin (dose-response); assay type: cell-based
Procedure: (§1) In certain aspects, the invention provides that erastin is lethal to tumor cells with activating mutations in proteins downstream of RAS proteins. Dose-response of 30 tumor cell lines to erastin was measured, and at least 50% inhibition of cell viability in 19 of the 30 tumor cell lines was formed. Numerous sarcoma-derived tumor cell lines were sensitive to erastin, consistent with the fact that erastin was discovered in an engineered tumor cell line created from human fibroblasts. Non-limiting examples include, HT1080 fibrosarcoma cells. HT1080 fibrosarcoma cells, which have a known activating mutation in NRAS, (Plattner, R. et al. Differential contribution of the ERK and JNK mitogen-activated protein kinase cascades to Ras transformation of HT1080 fibrosarcoma and DLD-1 colon carcinoma cells. Oncogene. 18: 1807-17 (1999), were quite sensitive to erastin. In order to determine whether RAS-activated signaling was modulated in cell lines that respond to erastin, the phosphorylation status of ERK1/2 in 12 sarcoma cell lines with a range of sensitivities to erastin was evaluated. In certain aspects, the invention provides a non-zero correlation, such as for example, a correlation coefficient of 0.41, between ERK1/2 phosphorylation status and erastin sensitivity in these cell lines.
(§2) Given that oncogenic RAS activates at least four downstream pathways, analysis was performed to identify which downstream effects were necessary for erastin sensitivity. In certain embodiments, the invention provides that erastin inhibits growth and kills genuine tumor cells with RAS mutations. In other embodiments, the invention provides measures of the dose-response of 29 tumor cell lines to erastin, wherein there is at least 50% inhibition of viability in 18 of the cell lines (Table 4). Numerous sarcoma-derived tumor cell lines were sensitive to erastin, consistent with the fact that erastin was discovered in an engineered tumor cell line created from human fibroblasts.

[3] = tested on: EWS502; test: as above; assay type: cell-based; details: EWS 502
Procedure: as §1, §2

[4] = tested on: TC32; test: as above; assay type: cell-based; details: TC 32
Procedure: as §1, §2

[5] = tested on: SK-ES-1; test: as above; assay type: cell-based; details: SICES1
Procedure: as §1, §2

[6] = tested on: TC71; test: as above; assay type: cell-based; details: TC 71
Procedure: as §1, §2

[7] = tested on: SK-N-MC; test: as above; assay type: cell-based
Procedure: as §1, §2

[8] = tested on: HT1080; test: as above; assay type: cell-based, human; details: HT 1080
Procedure: as §1, §2

[9] = tested on: BJELR; test: as above; assay type: cell-based, human; details: BJ-TERT/LT/ST/RASV12
Procedure: as §1, §2

[10] = tested on: A673; test: as above; assay type: cell-based, human
Procedure: as §1, §2

[11] = tested on: BJEH; test: as above; assay type: cell-based, human; details: BJ-TERT
Procedure: as §1, §2

[12] = tested on: several tumor cell lines; test: Potency in several tumor cell lines; assay type: cell-based

CCOc1ccccc1-n1c(C(C)N2CCN(C(=O)COc3ccc(Cl)cc3)CC2)nc2ccccc2c1=O (stereo not shown) [erastin]
RAS-selective lethality [1]: at least 16 fold
RAS selectivity ([1]; BJ-TERT/LT/ST vs BJ-TERT/LT/ST/RASV12): >16
Erastin Sensitivity (maximum killing induced by erastin) [2]: 0.00
Erastin Sensitivity (maximum killing induced by erastin) [3]: 0.42
Erastin Sensitivity (maximum killing induced by erastin) [4]: 0.88
Erastin Sensitivity (maximum killing induced by erastin) [5]: 0.96
Erastin Sensitivity (maximum killing induced by erastin) [6]: 0.92
Erastin Sensitivity (maximum killing induced by erastin) [7]: 0.95
Erastin Sensitivity (maximum killing induced by erastin) [8]: 0.98
Erastin Sensitivity (maximum killing induced by erastin) [9]: 1.00
Erastin Sensitivity (maximum killing induced by erastin) [10]: 0.54
Erastin Sensitivity (maximum killing induced by erastin) [11]: 0.22
potency [12]: 1000 to 5000 nM
